Data set [1] is described as follows: Pharmacokinetic study in female CD1 mice, single oral dose. The following applies: CD1, mouse, in vivo, 200 mg/kg.
Data set [2] in a line: In vitro liver microsome assay, mouse. The following applies: predicted from mouse liver microsome stability. The data set is classed as in vitro ADME.

Bounds are passed on as bounds.

As a reminder, the AUC is concentration integrated over time. The low end stands for less exposure, the high end for more exposure. Regarding `CCOC(=O)c1c(-c2cccc(Cl)c2)[nH]c2cc(OC)c(F)cc2c1=O` [20g, Ethyl 2-(3-chlorophenyl)-6-fluoro-7-methoxy-4-oxo-1,4-dihydroquinoline-3-carboxylate], in data set [1], the AUC is greater than 125 µM·h. Moreover, in data set [2], the “predicted in vivo mouse CL′inf” value is listed as 9.4 mL/min/kg.
`CCOC(=O)c1c(-c2cccc(Br)c2)[nH]c2cc(OC)c(F)cc2c1=O` [20h] registered an AUC in data set [1] greater than 70 µM·h.

The record behind these values is publication PMC3349818 (Journal of Medicinal Chemistry, 2012).
